Measured values published in patent US5182283A, “Heterocyclic compounds their preparation and use” (Novo Nordisk A/S, priority 1990, dated 1993).
Structures can show the parent of a compound that is named as a salt. Where two headings read alike, the source gives them in different places. One block for each molecule: values may come before it.

Tests used:
[1] = in vivo; cited from earlier work
[2] = in vivo; cited from earlier work; remark: listed apart in the source
[3] = tested on: central and peripheral muscarinic effects; conditions: in vivo; cited from earlier work
[4] = target: muscarinic acetylcholine receptors; experiment: inhibition of specific binding of ^3 H-Oxotremorine-M (^3 H-Oxo) in rat cortex; set-up: species or system male Wistar rats; conditions: read-out: Inhibition in vitro OXO BINDING (IC50, concentration which inhibits the specific binding of ^3 H-Oxo by 50%), ^3 H-Oxotremorine 1.0 nM, 30 min at 25° C., pH 7.4, 25-75% inhibition needed for calculation
Procedure: The pharmacological properties of the compounds of the invention can be illustrated by determining their capability to inhibit the specific binding of ^3 H-Oxotremorine-M (^3 H-Oxo).
^3 H-Oxo labels muscarinic receptor in the CNS (with a preference for agonist domaines of the receptors). Three different sites are labelled by ^3 H-Oxo. […] Using the present experimental conditions only the high and medium affinity sites are determined.
The inhibitory effects of compounds on ^3 H-Oxo binding reflects the affinity for muscarinic acetylcholine receptors.
All preparations are performed at 0°-4° C. unless otherwise indicated. Fresh cortex (0.1-1 g) from male Wistar rats (150-250 g) is homogenized for 5-10 s in 10 ml 20 mM Hepes pH: 7.4, with an Ultra-Turrax homogenizer. The homogenizer is rinsed with 10 ml of buffer and the combined suspension centrifuged for 15 min at 40,000×g. The pellet is washed three times with buffer. In each step the pellet is homogenized as before in 2×10 ml of buffer and centrifuged for 10 min at 40,000×g.
The final pellet is homogenized in 20 mM Hepes pH: 7.4 (100 ml per g of original tissue) and used for binding assay. Aliquots of 0.5 ml is added 25 μl of test solution and 25 μl of ^3 H-Oxotremorine (1.0 nM, final concentration) mixed and incubated for 30 min at 25° C. […] After incubation samples are added 5 ml of ice-cold buffer and poured directly onto Whatman GF/C glass fiber filters under suction and immediately washed 2 times with 5 ml of ice-cold buffer. The amount of radioactivity on the filters are determined by conventional liquid scintillation counting. Specific binding is total binding minus non specific binding.
Test substances are dissolved in 10 ml water (if necessary heated on a steambath for less than 5 minutes) at a concentration of 2.2 mg/ml. 25-75% inhibition of specific binding must be obtained before calculation of IC50.
[formula] where Co is specific binding in control assays and Cx is the specific binding in the test assay. (The calculations assume normal mass-action kinetics).

[5] = target: muscarinic receptor in the CNS; conditions: read-out: affinity of ^3 H-Oxo site, cited from earlier work

Structure (SMILES): COC(=O)C1=CCCN(C)C1 [Arecoline, methyl 1-methyl-1,2,5,6-tetrahydropyridine-3-carboxylate]
toxicity [1]: rather toxic
biological half life [2]: very short
separation between central and peripheral muscarinic effects [3]: small separation

IC50 [4]: 5.6 nM
Structure (SMILES): CCCCCCOc1nccnc1[C@@H]1CN2CC[C@@H]1C2 (relative stereo) [Compound 28, Exo-3-(3-hexyloxypyrazinyl)-1-azabicyclo[2.2.1]heptane hydrochloride]

IC50 [4]: 46 nM
Structure (SMILES): CCCCCCOc1nccnc1[C@H]1CN2CC[C@@H]1C2 (relative stereo) [Compound 27, Endo-3-(3-hexyloxypyrazinyl)-1-azabicyclo[2.2.2]heptane hydrochlorid hemihydrate]

Structure (SMILES): C[N+](C)(C)CC#CCN1CCCC1=O [^3 H-Oxo]
Kd ([5]; first of three sites (high affinity)): 1.8 nM
Kd ([5]; second of three sites (medium affinity)): 20 nM
Kd ([5]; third of three sites, not determined under the present conditions): 3000 nM

Structure (SMILES): CCCCCOc1nccnc1C1CN2CCC1CC2 (stereo not shown) [Compound 25, 3-(3-Pentyloxypyrazinl)-1-azabicyclo[2.2.2]octane hydrochloride]
IC50 [4]: 6 nM

Structure (SMILES): FC(F)(F)C(F)(F)C(F)(F)C(F)(F)CCOc1nccnc1C1=CN2CCC1CC2 [Compound 24, 3-(3-(3,3,4,4,5,5,6,6,6)nonafluorohexyloxypyrazinyl)-1-azabicyclo[2.2.2]oct-2-ene hydrochloride]
IC50 [4]: 490 nM
